For six compounds, mutagenic call results are on record in PubChem BioAssay AID1259407 (Chemical Carcinogenesis Research Information System (CCRIS), 2018).

This series relates to CCRIS mutagenicity, Ames/micronucleus/aberration tests. Kind of series: CCRIS mutagenicity studies.
[1] abbreviates: Test System: AMES SALMONELLA TYPHIMURIUM, Strain/Indicator: TA98, Metabolic Activation: NONE, Method: STANDARD PLATE.
Setting [2] is: Test System: AMES SALMONELLA TYPHIMURIUM, Strain/Indicator: TA98, Metabolic Activation: RAT, LIVER, S-9, AROCLOR 1254, Method: STANDARD PLATE.
[3] abbreviates: Test System: AMES SALMONELLA TYPHIMURIUM, Strain/Indicator: TA100, Metabolic Activation: NONE, Method: STANDARD PLATE.
Setting [4] is: Test System: AMES SALMONELLA TYPHIMURIUM, Strain/Indicator: TA100, Metabolic Activation: RAT, LIVER, S-9, AROCLOR 1254, Method: STANDARD PLATE.
[5] abbreviates: Test System: AMES SALMONELLA TYPHIMURIUM, Strain/Indicator: TA1537, Metabolic Activation: NONE, Method: STANDARD PLATE.

Active and inactive are the calls of the source. The rule behind the calls is not given here.

With `COP(=S)(OC)Oc1ccc([N+](=O)[O-])c(C)c1`, the mutagenic call by setting is: (End Point: IN VIVO MICRONUCLEUS, Test System: BONE MARROW POLYCHROMATIC ERYTHROCYTES, Species: MOUSE, Strain/Sex: DDY/MALE, Route: IP) “inactive; negative”; (Test System: AMES SALMONELLA TYPHIMURIUM, Strain/Indicator: TA98, Metabolic Activation: NONE, Method: PREINCUBATION) “inactive; negative”; under setting [1], “inactive; negative”; (Test System: AMES SALMONELLA TYPHIMURIUM, Strain/Indicator: TA98, Metabolic Activation: RAT LIVER S-9 (10%), Method: PREINCUBATION) “inactive; negative”; under setting [2], “inactive; negative”; (Test System: AMES SALMONELLA TYPHIMURIUM, Strain/Indicator: TA98, Metabolic Activation: S-9, NADPH GENERATING SYSTEM, Method: STANDARD PLATE) “inactive; negative”. The mutagenic call reads like this: (Test System: AMES SALMONELLA TYPHIMURIUM, Strain/Indicator: TA100, Metabolic Activation: NONE, Method: PREINCUBATION) “inactive; negative”; under setting [3], “inactive; negative”; (Test System: AMES SALMONELLA TYPHIMURIUM, Strain/Indicator: TA100, Metabolic Activation: RAT LIVER S-9 (10%), Method: PREINCUBATION) “inactive; negative”; under setting [4], “inactive; negative”; (Test System: AMES SALMONELLA TYPHIMURIUM, Strain/Indicator: TA100, Metabolic Activation: S-9 MIX, Method: STANDARD PLATE) “active; positive”; (Test System: AMES SALMONELLA TYPHIMURIUM, Strain/Indicator: TA102, Metabolic Activation: NONE, Method: STANDARD PLATE) “inactive; negative”. Besides, the mutagenic call (Test System: AMES SALMONELLA TYPHIMURIUM, Strain/Indicator: TA102, Metabolic Activation: S-9, NADPH GENERATING SYSTEM, Method: STANDARD PLATE) was “inactive; negative”; the mutagenic call (Test System: AMES SALMONELLA TYPHIMURIUM, Strain/Indicator: TA1535, Metabolic Activation: NONE, Method: STANDARD PLATE) was “inactive; negative”; the mutagenic call (Test System: AMES SALMONELLA TYPHIMURIUM, Strain/Indicator: TA1535, Metabolic Activation: S-9, NADPH GENERATING SYSTEM, Method: STANDARD PLATE) was “inactive; negative”; the mutagenic call under setting [5] was “inactive; negative”; the mutagenic call (Test System: AMES SALMONELLA TYPHIMURIUM, Strain/Indicator: TA1537, Metabolic Activation: S-9, NADPH GENERATING SYSTEM, Method: STANDARD PLATE) was “inactive; negative”; the mutagenic call (Test System: AMES SALMONELLA TYPHIMURIUM, Strain/Indicator: YG1021, Metabolic Activation: NONE, Method: PREINCUBATION) is “inactive; negative”. For the same compound, the mutagenic call was “inactive; negative” (Test System: AMES SALMONELLA TYPHIMURIUM, Strain/Indicator: YG1021, Metabolic Activation: RAT LIVER S-9 (10%), Method: PREINCUBATION); “inactive; negative” (Test System: AMES SALMONELLA TYPHIMURIUM, Strain/Indicator: YG1024, Metabolic Activation: NONE, Method: PREINCUBATION); “inactive; negative” (Test System: AMES SALMONELLA TYPHIMURIUM, Strain/Indicator: YG1024, Metabolic Activation: RAT LIVER S-9 (10%), Method: PREINCUBATION); “active; positive” (Test System: AMES SALMONELLA TYPHIMURIUM, Strain/Indicator: YG1026, Metabolic Activation: NONE, Method: PREINCUBATION); “active; positive” (Test System: AMES SALMONELLA TYPHIMURIUM, Strain/Indicator: YG1026, Metabolic Activation: RAT LIVER S-9 (10%), Method: PREINCUBATION); “active; positive” (Test System: AMES SALMONELLA TYPHIMURIUM, Strain/Indicator: YG1029, Metabolic Activation: NONE, Method: PREINCUBATION). Also, the mutagenic call runs as follows: (Test System: AMES SALMONELLA TYPHIMURIUM, Strain/Indicator: YG1029, Metabolic Activation: RAT LIVER S-9 (10%), Method: PREINCUBATION) “active; positive”; (Test System: AMES SALMONELLA TYPHIMURIUM, Strain/Indicator: YG1041, Metabolic Activation: NONE, Method: PREINCUBATION) “active; positive”; (Test System: AMES SALMONELLA TYPHIMURIUM, Strain/Indicator: YG1041, Metabolic Activation: RAT LIVER S-9 (10%), Method: PREINCUBATION) “active; positive”; (Test System: AMES SALMONELLA TYPHIMURIUM, Strain/Indicator: YG1042, Metabolic Activation: NONE, Method: PREINCUBATION) “active; positive”; (Test System: AMES SALMONELLA TYPHIMURIUM, Strain/Indicator: YG1042, Metabolic Activation: RAT LIVER S-9 (10%), Method: PREINCUBATION) “active; positive”.
As for `C[n+]1c2ccccc2cc2c(N)cccc21`, the mutagenic call is, setting by setting: (Test System: AMES SALMONELLA TYPHIMURIUM, Strain/Indicator: TA1535, Metabolic Activation: NONE, Method: PREINCUBATION) “inactive; negative”; (Test System: AMES SALMONELLA TYPHIMURIUM, Strain/Indicator: TA1535, Metabolic Activation: RAT, LIVER, S-9, TETRACHLOROBIPHENYL, Method: PREINCUBATION) “inactive; negative”; (Test System: AMES SALMONELLA TYPHIMURIUM, Strain/Indicator: TA1537, Metabolic Activation: NONE, Method: PREINCUBATION) “active; positive”; (Test System: AMES SALMONELLA TYPHIMURIUM, Strain/Indicator: TA1537, Metabolic Activation: RAT, LIVER, S-9, TETRACHLOROBIPHENYL, Method: PREINCUBATION) “active; positive”; (Test System: AMES SALMONELLA TYPHIMURIUM, Strain/Indicator: TA1538, Metabolic Activation: NONE, Method: PREINCUBATION) “inactive; negative”; (Test System: AMES SALMONELLA TYPHIMURIUM, Strain/Indicator: TA1538, Metabolic Activation: RAT, LIVER, S-9, TETRACHLOROBIPHENYL, Method: PREINCUBATION) “inactive; negative”. Moreover, the mutagenic call (Test System: AMES SALMONELLA TYPHIMURIUM, Strain/Indicator: TA1977, Metabolic Activation: NONE, Method: PREINCUBATION) was “active; positive”.
For the compound `CCN(CC)CCNc1ccc2ncn3c4ccc(O)cc4c(=O)c1c23`, the mutagenic call by setting is: under setting [5], “active; positive”; (Test System: AMES SALMONELLA TYPHIMURIUM, Strain/Indicator: TA1537, Metabolic Activation: S-9, Method: STANDARD PLATE) “active; positive”; (Test System: CHINESE HAMSTER V-79, Strain/Indicator: V-79 (HGPRT)/6-THIOGUANINE, Metabolic Activation: NONE) “active; positive”.
Take `C1CSCSC1`: the mutagenic call is “active; positive” under setting [1], “inactive; negative” under setting [2], “active; positive” under setting [3] and “active; positive” under setting [4].
Regarding `O=C1NC(=O)C(Cl)(Cl)C1=C(Cl)Cl`, under setting [3], the mutagenic call was “active; positive”.
For `C=CC(C)(C)c1cc2cc3c(cc2oc1=O)OC(C(C)(C)OC(C)=O)C3` (stereo unspecified), the mutagenic call by setting is: under setting [1], “inactive; negative”; (Test System: AMES SALMONELLA TYPHIMURIUM, Strain/Indicator: TA98, Metabolic Activation: RAT, LIVER, S-9, PHENOBARBITAL, Method: STANDARD PLATE) “inactive; negative”.
